{
  "source": "patent US11827624B2",
  "about": "“Covalent immune recruiter compounds for immune cell recognition and associated uses” (McMaster University, priority 2020, dated 2023)",
  "key": {"[1]": {"test": "Aqueous CIR stability test (LC-MS hydrolytic stability in PBS)", "assay_type": "physicochemical", "details": "PBS with 1% DMSO; ≈10 μM in 1% DMSO/PBS, room temperature; read-out: t1/2 (hydrolytic stability, intact CIR) (converted)", "protocol": "Stability studies were conducted on a Sciex 4000 QTRAP, ESI-LCMS Triple Quadrupole Mass Spectrometer connected to an Agilent 1200 HPLC. All molecules were diluted 100× in PBS from a stable frozen DMSO stock solution reaching a final concentration of ≈10 μM in 1% DMSO/PBS and incubated for different amounts of time at room temperature, prior to LC-MS injection using a gradient of 95:5 to 5:95 (0.1% Formic Acid (aq)) water: ACN over 15 minutes. The integrations of the Absorbance values at 355-365 nm, were determined corresponding to the DNP moiety. The absorbance values corresponding to intact CIR were divided by the sum of intact and hydrolyzed CIR (the imidazole-DNP fragment) to determine fraction CIR intact changing with time. The fraction of intact CIR versus time was plotted on GraphPad Prism 8 using a “Dissociation—One Phase Decay” to extract the half life.\nLC-MS analysis of the hydrolytic stability of CIRs 1, 3, and 4 in PBS was performed. The curve fit was done using a monoexponential decay which represents intact CIR plotted as a function of peak integration (corresponding to DNP absorbance) overtime."}, "PSMA+LNCaP cells": {"test_system": "PSMA+LNCaP cells", "test": "Flow cytometry ADCP assay with mmAb on LNCaP cells", "assay_type": "cell-based, human", "from_the_text": "ADCP flow cytometry experiments were run on a BD LSRII Flow Cytometer. The human IgG isotype control used was purchased from Jackson ImmunoResearch (009-000-003). The human IgG1 monoclonal anti-DNP antibody (mAb) was purchased from acrobiosystems (DNP-M2). PSMA expression was confirmed with an anti-PSMA antibody Alexa 647 conjugate (Novus Biologicals, Catalog #FAB4234R). For PSMA competition controls, PMPA was purchased from Sigma (SML1612). Hek-293T (PSMA+/−) cell lines were generously given by Dr. Cyril Barinka (Institute of Biotechnology CAS, Czech Republic). U937 cells were generously given by Dr. John Valliant (McMaster University, Canada). LNCaP cells were generously given by Dr. Karen Mossman (McMaster University, Canada). IFN-γ was purchased from Fischer Scientific (PHC4031). Ultra low IgG FBS was purchased from Fischer Scientific (A3381901). RPMI-1640 was purchased as a powder from Fischer Scientific (31800089) and resuspended. DMEM was purchased as a powder from Fischer Scientific (12800082) and resuspended. […]\nFor preparation of effector monocytes, 24 hours prior to inducing phagocytosis U937 monocytes were seeded at 500,000 cells/mL and activated with IFN-γ ([…]). After incubation, these cells were then counted and washed twice with serum free assay media (neat RPMI). […] These cells were then counted and washed twice with serum free assay media (neat RPMI). […]"}},
  "data": [
    {"smiles": "O=C(O)CC[C@H](NC(=O)N[C@@H](CCCCNC(=O)NCCOCCOCCOCCOCCOCCOCCOCCOC(=O)n1cnc(CCNC(=O)CNc2ccc([N+](=O)[O-])cc2[N+](=O)[O-])c1)C(=O)O)C(=O)O", "note": "[CIR 3]", "values": [
      {"measurement": "half-life", "setting": "[1]", "result": "~12", "unit": "h"},
      {"measurement": "ADCP on LNCaP target cells", "setting": "PSMA+LNCaP cells", "result": "significant functional advantage compared to non-covalent recruitment across all antibody concentrations tested"}
    ]}
  ]
}
